Each block holds one compound with its values, some of them ahead of it. Active and inactive are the calls of the source. The calls are words filed in the database; no cut-off is given here. Residues, ends and D or L forms follow the SMILES beside them.
Tests used:
[1] = Toxicity in nude mouse xenografted with human SK-BR-3 cells assessed as effect on globulin level at 8 micromol/kg, iv administered every 3 days for 14 days; format: organism-based; conditions: in vivo, 336 h, dose 8 µmol/kg, time 14 day
SK-BR-3 [2] = assay: Induction of cell cycle arrest in human SK-BR-3 cells assessed as accumulation of cells at S phase incubated for 24 hrs by flow cytometry analysis (reference value: 23%); format: functional
NCI-N87 = assay: Cytotoxicity against HER-positive human NCI-N87 cells assessed as inhibition of cell growth incubated for 48 hrs by MTT assay; format: functional, cell-based; conditions: NCI-N87, 48 h
[3] = Cytotoxicity against human MCF-10A cells assessed as inhibition of cell growth incubated for 48 hrs by MTT assay; format: toxicity, cell-based
SK-BR-3 [4] = assay: Induction of apoptosis in human SK-BR-3 cells assessed as live cells incubated for 24 hrs by Annexin V-FITC/PI staining based flow cytometry analysis (Rvb= 89.4%); format: functional
[5] = Toxicity in nude mouse xenografted with human SK-BR-3 cells assessed as cellular necrosis at 8 micromol/kg, iv administered every 3 days for 14 days by H and E staining based analysis; format: organism-based; conditions: in vivo, 336 h, dose 8 µmol/kg, time 14 day
[6] = Toxicity in nude mouse xenografted with human SK-BR-3 cells assessed as heart damage at 8 micromol/kg, iv administered every 3 days for 14 days by H and E staining based analysis; format: organism-based; conditions: in vivo, 336 h, dose 8 µmol/kg, time 14 day
[7] = Toxicity in nude mouse xenografted with human SK-BR-3 cells assessed as spleen damage at 8 micromol/kg, iv administered every 3 days for 14 days by H and E staining based analysis; format: organism-based; conditions: in vivo, 336 h, dose 8 µmol/kg, time 14 day
[8] = Toxicity in nude mouse xenografted with human SK-BR-3 cells assessed as liver damage at 8 micromol/kg, iv administered every 3 days for 14 days by H and E staining based analysis; format: organism-based; conditions: in vivo, 336 h, dose 8 µmol/kg, time 14 day
[9] = Toxicity in nude mouse xenografted with human SK-BR-3 cells assessed as kidney damage at 8 micromol/kg, iv administered every 3 days for 14 days by H and E staining based analysis; format: organism-based; conditions: in vivo, 336 h, dose 8 µmol/kg, time 14 day
SK-BR-3 [10] = assay: Induction of apoptosis in human SK-BR-3 cells assessed as late apoptotic cells incubated for 24 hrs by Annexin V-FITC/PI staining based flow cytometry analysis (Rvb= 5.02%); format: functional
[11] = Toxicity in nude mouse xenografted with human SK-BR-3 cells assessed as lung damage at 8 micromol/kg, iv administered every 3 days for 14 days by H and E staining based analysis; format: organism-based; conditions: in vivo, 336 h, dose 8 µmol/kg, time 14 day
[12] = Toxicity in nude mouse xenografted with human SK-BR-3 cells assessed as effect on total protein level at 8 micromol/kg, iv administered every 3 days for 14 days; format: organism-based; conditions: in vivo, 336 h, dose 8 µmol/kg, time 14 day
[13] = Toxicity in nude mouse xenografted with human SK-BR-3 cells assessed as effect on alkaline phosphatase level at 8 micromol/kg, iv administered every 3 days for 14 days; format: organism-based; conditions: in vivo, 336 h, dose 8 µmol/kg, time 14 day
SK-OV-3 = assay: Cytotoxicity against HER-positive human SK-OV-3 cells assessed as inhibition of cell growth incubated for 48 hrs by MTT assay; format: functional, cell-based; conditions: SK-OV-3, 48 h
MDA-MB-231 = assay: Cytotoxicity against HER-negative human MDA-MB-231 cells assessed as inhibition of cell growth incubated for 48 hrs by MTT assay; format: functional, cell-based; conditions: MDA-MB-231, 48 h
[14] = Toxicity in nude mouse xenografted with human SK-BR-3 cells assessed as effect on creatinine level at 8 micromol/kg, iv administered every 3 days for 14 days; format: organism-based; conditions: in vivo, 336 h, dose 8 µmol/kg, time 14 day
[15] = Toxicity in nude mouse xenografted with human SK-BR-3 cells assessed as inflammatory cell infiltration at 8 micromol/kg, iv administered every 3 days for 14 days by H and E staining based analysis; format: organism-based; conditions: in vivo, 336 h, dose 8 µmol/kg, time 14 day
SK-BR-3 [16] = assay: Cytotoxicity against HER-positive human SK-BR-3 cells assessed as inhibition of cell growth incubated for 48 hrs by MTT assay; format: functional, cell-based; conditions: SK-BR-3, 48 h
[17] = Toxicity in nude mouse xenografted with human SK-BR-3 cells assessed as effect on albumin level at 8 micromol/kg, iv administered every 3 days for 14 days; format: organism-based; conditions: in vivo, 336 h, dose 8 µmol/kg, time 14 day
SK-BR-3 [18] = assay: Induction of apoptosis in human SK-BR-3 cells assessed as early apoptotic cells incubated for 24 hrs by Annexin V-FITC/PI staining based flow cytometry analysis (Rvb= 4.37%); format: functional
SK-BR-3 [19] = assay: Induction of apoptosis in human SK-BR-3 cells assessed as dead cells incubated for 24 hrs by Annexin V-FITC/PI staining based flow cytometry analysis (Rvb= 1.21%); format: functional
[20] = biological target: T1, Receptor tyrosine-protein kinase erbB-2 (Homo sapiens, UniProt P04626); assay: Binding affinity to HER2 in HER-positive human SK-BR-3 cells assessed as increase in fluorescence intensity at 25 uM by Hoechst 33342 staining based confocal microscopic analysis; format: cell-based
[21] = Drug uptake in tumor of nude mouse xenografted with HER2-positive human SK-BR-3 cells assessed as increase in fluorescence intensity at 25 uM, iv measured after 2 hrs by IVIS spectrum in vivo imaging analysis; format: ADME, organism-based, Neoplasm
[22] = Metabolic stability in Sprague-Dawley rat plasma assessed as half life incubated for 120 mins by LC-MS/MS analysis; format: ADME, cell-free
[23] = biological target: T1, Receptor tyrosine-protein kinase erbB-2; assay: Binding affinity to recombinant HER2 (unknown origin) assessed as dissociation constant by SPR analysis
[24] = Metabolic stability in Sprague-Dawley rat plasma assessed as drug degradation incubated for 120 mins by LC-MS/MS analysis; format: ADME, cell-free; conditions: 2 h

T1 sequence (P04626 whole entry): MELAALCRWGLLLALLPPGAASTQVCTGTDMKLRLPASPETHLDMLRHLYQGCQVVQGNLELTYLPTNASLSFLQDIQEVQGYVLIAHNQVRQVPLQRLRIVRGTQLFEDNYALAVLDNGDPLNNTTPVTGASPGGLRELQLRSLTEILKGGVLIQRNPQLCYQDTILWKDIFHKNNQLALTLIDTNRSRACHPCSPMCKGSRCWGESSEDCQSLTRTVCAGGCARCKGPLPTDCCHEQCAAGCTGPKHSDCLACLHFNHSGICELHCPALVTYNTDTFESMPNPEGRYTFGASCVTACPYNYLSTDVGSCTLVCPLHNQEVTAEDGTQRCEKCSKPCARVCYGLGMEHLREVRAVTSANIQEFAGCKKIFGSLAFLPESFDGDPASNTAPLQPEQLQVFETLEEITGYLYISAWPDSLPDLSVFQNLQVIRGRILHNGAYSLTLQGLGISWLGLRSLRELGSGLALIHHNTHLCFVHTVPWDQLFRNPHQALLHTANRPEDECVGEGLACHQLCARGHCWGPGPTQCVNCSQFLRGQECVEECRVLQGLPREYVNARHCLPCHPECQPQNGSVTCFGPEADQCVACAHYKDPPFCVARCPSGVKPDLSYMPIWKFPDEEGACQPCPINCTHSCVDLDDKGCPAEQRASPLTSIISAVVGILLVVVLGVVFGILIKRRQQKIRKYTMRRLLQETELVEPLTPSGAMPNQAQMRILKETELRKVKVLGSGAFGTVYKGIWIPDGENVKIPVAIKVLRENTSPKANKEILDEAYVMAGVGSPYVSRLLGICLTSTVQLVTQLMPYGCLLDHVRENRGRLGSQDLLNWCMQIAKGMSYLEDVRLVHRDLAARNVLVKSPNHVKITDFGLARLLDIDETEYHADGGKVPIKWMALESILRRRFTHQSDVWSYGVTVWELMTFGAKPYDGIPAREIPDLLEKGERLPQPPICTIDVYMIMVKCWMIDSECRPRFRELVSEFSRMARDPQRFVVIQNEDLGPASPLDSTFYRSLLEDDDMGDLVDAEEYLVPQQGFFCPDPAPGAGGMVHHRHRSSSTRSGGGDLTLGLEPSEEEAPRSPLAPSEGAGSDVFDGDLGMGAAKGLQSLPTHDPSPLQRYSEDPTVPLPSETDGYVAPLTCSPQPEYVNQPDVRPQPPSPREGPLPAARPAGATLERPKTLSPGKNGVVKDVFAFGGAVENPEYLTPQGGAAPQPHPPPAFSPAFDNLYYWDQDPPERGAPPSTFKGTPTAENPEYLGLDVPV

Compound: CC[C@@]1(O)C(=O)OCc2c1cc1n(c2=O)Cc2cc3ccccc3nc2-1 [CAMPTOTHECIN]
- Activity [1]: Non-Toxic
- Activity (SK-BR-3 [2]): 50.8%
- IC50 (NCI-N87): 2320 nM
- IC50 at 48 h [3]: 2580 nM
- Activity (SK-BR-3 [4]): 48.8%
- Activity [5]: Non-Toxic
- Activity [6]: Non-Toxic
- Activity [7]: Non-Toxic
- Activity [8]: Non-Toxic
- Activity [9]: Non-Toxic
- Activity (SK-BR-3 [10]): 12.3%
- Activity [11]: Non-Toxic
- Activity [12]: Non-Toxic
- Activity [13]: Non-Toxic
- IC50 (SK-OV-3): 3820 nM
- IC50 (MDA-MB-231): 1060 nM
- Activity [14]: Non-Toxic
- Activity [15]: Non-Toxic
- IC50 (SK-BR-3 [16]): 210 nM
- Activity [17]: Non-Toxic
- Activity (SK-BR-3 [18]): 38.6%
- Activity (SK-BR-3 [19]): 0.35%

- Activity [20]: Active
- Drug uptake [21]: Active
Compound: CC[C@H](C)[C@H](NC(=O)[C@H](CCCNC(=N)N)NC(=O)CNC(=O)[C@H](CS)NC(=O)CNC(=O)[C@H](CCCCN)NC(=O)[C@H](Cc1ccccc1)NC(=O)[C@H](CCCNC(=N)N)NC(=O)[C@H](CCC(N)=O)NC(=O)[C@H](CC(N)=O)NC(=O)[C@H](Cc1ccc(O)cc1)NC(=O)[C@H](Cc1c[nH]c2ccccc12)NC(=O)[C@H](CO)NC(=O)[C@H](CCCNC(=N)N)NC(=O)CNC(=O)[C@H](Cc1c[nH]c2ccccc12)NC(=O)[C@H](CC(N)=O)NC(=O)[C@@H]1CCCN1C(=O)[C@@H](N)CC(=O)NC(=S)Nc1ccc2c(c1)C(=O)OC21c2ccc(O)cc2Oc2cc(O)ccc21)C(=O)N[C@@H](CCCCN)C(=O)N1CCC[C@H]1C(=O)N[C@@H](CCCNC(=N)N)C(=O)N[C@@H](CCCCN)C(=O)NCC(=O)N[C@@H](Cc1ccc(O)cc1)C(=O)N[C@H](C(=O)N[C@@H](CCCNC(=N)N)C(=O)O)[C@@H](C)O (HELM PEPTIDE1{D.P.N.W.G.R.S.W.Y.N.Q.R.F.K.G.C.G.R.I.K.P.R.K.G.Y.T.R}|CHEM1{[O=C1OC2(c3ccc(O)cc3Oc3cc(O)ccc32)c2ccc(NC(=S)N[*:1])cc21]}$PEPTIDE1,CHEM1,1:R3-1:R1$$$V2.0)

- Drug uptake [21]: Active
Compound: CC[C@H](C)[C@H](NC(=O)[C@H](CCCNC(=N)N)NC(=O)CNC(=O)[C@H](CS)NC(=O)CNC(=O)[C@H](CCCCN)NC(=O)[C@H](Cc1ccccc1)NC(=O)[C@H](CCCNC(=N)N)NC(=O)[C@H](CCC(N)=O)NC(=O)[C@H](CC(N)=O)NC(=O)[C@H](Cc1ccc(O)cc1)NC(=O)[C@H](Cc1c[nH]c2ccccc12)NC(=O)[C@H](CO)NC(=O)[C@H](CCCNC(=N)N)NC(=O)CNC(=O)[C@H](Cc1c[nH]c2ccccc12)NC(=O)[C@H](CC(N)=O)NC(=O)[C@@H]1CCCN1C(=O)[C@@H](N)CC(=O)NC(=S)Nc1ccc2c(c1)C(=O)OC21c2ccc(O)cc2Oc2cc(O)ccc21)C(=O)N[C@@H](CCCCN)C(=O)N1CCC[C@H]1C(=O)N[C@@H](CCCNC(=N)N)C(=O)N[C@@H](CCCCN)C(=O)NCC(=O)N[C@@H](Cc1ccc(O)cc1)C(=O)N[C@H](C(=O)N[C@@H](CCCNC(=N)N)C(N)=O)[C@@H](C)O

- half-life [22]: 15 min
- Kd [23]: 385 nM
- Stability [24]: Unstable
Compound: CC[C@H](C)[C@H](NC(=O)[C@H](CCCNC(=N)N)NC(=O)CNC(=O)[C@H](CS)NC(=O)CNC(=O)[C@H](CS)NC(=O)CNC(=O)[C@H](CCCCN)NC(=O)[C@H](Cc1ccccc1)NC(=O)[C@H](CCCNC(=N)N)NC(=O)[C@H](CCC(N)=O)NC(=O)[C@H](CC(N)=O)NC(=O)[C@H](Cc1ccc(O)cc1)NC(=O)[C@H](Cc1c[nH]c2ccccc12)NC(=O)[C@H](CO)NC(=O)[C@H](CCCNC(=N)N)NC(=O)CNC(=O)[C@H](Cc1c[nH]c2ccccc12)NC(=O)[C@H](CC(N)=O)NC(=O)[C@@H]1CCCN1C(=O)[C@@H](N)CC(N)=O)C(=O)N[C@@H](CCCCN)C(=O)N1CCC[C@H]1C(=O)N[C@@H](CCCNC(=N)N)C(=O)N[C@@H](CCCCN)C(=O)NCC(=O)N[C@@H](Cc1ccc(O)cc1)C(=O)N[C@H](C(=O)N[C@@H](CCCNC(=N)N)C(=O)O)[C@@H](C)O (H-NPNWGRSWYNQRFKGCGCGRIKPRKGYTR-OH)
